From patent publication US20050287163A1, “Mycoplasma polypeptides” (priority 2002, published 2005)
“Also recorded” adds a separate entry of the source.

Columns and labels:
[1] = system: porcine ciliated tracheal epithelial cells; test: [Ca2+]i measurement in single fura-2 loaded ciliated tracheal cells; type: cell-based
Method: Tracheal cells were isolated as previously described (Young et al., Vet. Microbiol., 71:269-279 (1999)). Briefly, the tracheas were removed from 3-6 month old specific-pathogen-free pigs anesthetized with sodium pentobarbital using aseptic techniques. The ciliated cells were dissociated using 0.15% pronase and 0.01% DNase in Ca^2+- and Mg^2+-free MEM medium, which was incubated at 4° C. for 24 hours. The epithelial cells were collected by centrifugation at 125× g for 5 minutes. The cell pellets were resuspended in a mixture of DMEM (high glucose) and Ham's F-12 (1:1) media containing 5% FBS, 0.12 U/mL of insulin, and 100 U/mL of penicillin-streptomycin. Cell suspensions were transferred to 90-mm tissue culture dishes and incubated in 5% CO2 for 60-90 minutes to remove fibroblasts. The tracheal epithelial cells were stored in liquid nitrogen until use.
(§1) The following techniques were used to obtain [Ca^2+]i measurements in single cells. The tracheal cells were loaded with 4 μM fura-2 acetoxymethyl ester (fura-2AM) in Krebs-Ringer bicarbonate (KRB) buffer solution containing: 136 mM NaCl, 4.8 mM KCl, 1.5 mM CaCl2, 1.2 mM KH2PO4, 1.2 mM MgSO4, 10 mM HEPES, 5.5 mM glucose, and 0.1% BSA, pH 7.4 and incubated for 30 minutes at 37° C. The loaded cells were centrifuged (700× g, 2 minutes), then resuspended with KRB at a concentration of 500-1000 cells/mL. The tracheal cells loaded with fura-2AM were plated onto poly-lysine-coated coverslips in a custom-made Petri dish. The dish containing fura-2 loaded cells was mounted on the stage of an inverted fluorescence microscope (Carl Zeiss, NY). Only viable ciliated tracheal cells were focused on for the determination of [Ca^2+]i at 24° C. The fura-2 loaded porcine ciliated tracheal cells deteriorated quickly at 37° C. Fluorescence images were obtained (excitation wavelengths of 334 and 380 nm; emission wavelength of 510±20 nm) and used to generate spatially resolved maps of [Ca^2+]i by subtracting the background dividing the images on a pixel-by-pixel basis. The emitted signals were digitalized, recorded, and processed using the Attofluor digital fluorescence imaging system (Atto Instruments, Rockville, Md.). After reading fluorescence for 150 seconds, mycoplasmas were mixed with the cell system. [Ca^2+]i was calculated as previously described (Grynkiewicz et al., J. Biol. Chem., 260:3440-3450 (1985)). Calibration was performed in situ according to the procedure provided by Atto Instruments, using Fura-2 penta K^+ as a standard.
To compare the [Ca^2+]i of tracheal cells response to pathogenic M. hyopneumoniae strain 91-3, avirulent M. hyopneumoniae, and M. flocculare, the cells were treated with the same concentration of 300 μg/mL. One to five ciliated single tracheal cells in each experiment were selected to investigate the [Ca^2+]i changes. The mycoplasmas were maintained on ice before being applied to tracheal cells.
Data on [Ca^2+]i were analyzed by ANOVA or by Student's t-test. The significance level was set at P<0.05.

[2] = system: Mhyo membrane-induced [Ca2+]i increase in ciliated tracheal cells; test: Protease pretreatment of Mhyo membrane, effect on membrane-induced [Ca2+]i increase; type: cell-based, porcine
Method: FIG. 6 contains four graphs plotting [Ca^2+]i response in ciliated porcine tracheal cells inoculated with Mhyo membranes. Each trace indicates the [Ca^2+]i changes in each tracheal cell. The arrows indicate when administration occurred. (A) The membrane preparation (100 μg/mL) increased [Ca^2+]i. (B) Digestion with proteinase K blocked the membrane-induced increase in [Ca^2+]i. The membrane (100 μg/0.1 mL PBS) was incubated with proteinase K (2 μg) at 37° C. for 8 hours before it was applied to tracheal cells in 0.9 mL Krebs-Ringer bicarbonate (KRB) buffer. (C) Digestion with trypsin potentiated the membrane-induced increase in [Ca^2+]i. The membrane (100 μg/0.1 mL PBS) was incubated with trypsin (6 μg) at 37° C. for 30 minutes before it was applied to tracheal cells in 0.9 mL KRB. […] The soluble protein was prepared by subjecting the trypsinized membrane to ultracentrifigation (100,000× g, 60 minutes) to obtain the supernatant.
Mycoplasmas lack cell walls and have only one type of membrane, the plasma membrane (Razin S. (1993) Mycoplasma membranes as models in membrane research (Chapter 2), In: Subcellular Biochemistry. Vol 20: Mycoplasma Cell Membranes, edited by Rottem S, Kahane I. Plenum Press, New York. pp. 1-28). The Mhyo membrane was prepared by osmotic lysis of the organisms and tested to determine if it increased [Ca^2+]i in ciliated tracheal cells. […]

[3] = system: guinea pig tracheal epithelia; details: trypsin 0.1 U/mL; cited from earlier work
[4] = system: M. hyopneumoniae-induced [Ca2+]i increase in porcine ciliated tracheal cells; test: Effect of pretreatment of tracheal cells on M. hyopneumoniae-induced [Ca2+]i increase; type: cell-based
Method: as §1
To investigate the pathway of Ca^2+ signaling, pertussis toxin (PTX, 100 ng/mL) was preincubated with tracheal cells for 3 hours. Cells were pretreated with thapsigargin (TG, 1 μM) for 30 minutes at 37° C. prior to the addition of the mycoplasmas to deplete the ER Ca^2+ store (Thastrup et al., Proc. Natl. Acad. Sci. USA, 87:2466-2470 (1990)). […] To confirm that mycoplasmas increased [Ca^2+]i by activating a Gi/o protein, Mas 7 (10 μM), an activator of this protein (Higashijima et al., J. Biol. Chem., 265:14176-14186 (1990)), was used to determine if it can increase [Ca^2+]i in tracheal cells. In addition, it was determined whether PTX can block the increase in [Ca^2+]i due to Mas 7.

[5] = system: Mas 7-induced [Ca2+]i increase in ciliated tracheal cells; test: Effect of PTX pretreatment on Mas 7-induced [Ca2+]i increase; type: cell-based, porcine; details: PTX pretreatment (100 ng/mL, 3 hours); Mas 7 10 μM
Method: as §1, with “Only viable ciliated tracheal cells were focused on for the determination of [Ca^2+]i at 24° C. The fura-2 loaded porcine ciliated tracheal cells deteriorated quickly at 37° C.” left out, “Calibration was performed in situ according to the procedure provided by Atto Instruments, using Fura-2 penta K^+ as a standard.” left out

Compound: trypsin
- effect of trypsin alone on [Ca2+]i ([1]; trypsin alone at ≧1 U/mL): increase
- effect of trypsin pretreatment on membrane-induced [Ca2+]i increase ([2]; pretreatment of the membrane for 30 minutes): potentiated
- effect of trypsin pretreatment on membrane-induced [Ca2+]i increase ([2]; pretreatment of the membrane for 16 hours): failed to reduce
- effect on [Ca2+]i [3]: can increase

Compound: COc1ccc2c(c1)CC[C@@H]1[C@@H]2CC[C@]2(C)[C@@H](NCCCCCCN3C(=O)C=CC3=O)CC[C@@H]12 [U-73122]
- effect on M. hyopneumoniae-induced [Ca2+]i increase ([4]; pretreatment 2 μM, 100 seconds, U-73122): abolished; also recorded: prevented

Compound: C/C=C(/C)C(=O)O[C@H]1C(C)=C2[C@H]([C@@H]1OC(=O)CCCCCCC)[C@@](C)(OC(C)=O)C[C@H](OC(=O)CCC)[C@@]1(O)[C@H]2OC(=O)[C@@]1(C)O [thapsigargin]
- effect on M. hyopneumoniae-induced [Ca2+]i increase ([4]; pretreatment 1 μM, 30 minutes, mycoplasma 300 μg/mL): abolished

Compound: COc1ccc2c(c1)CC[C@@H]1[C@@H]2CC[C@]2(C)[C@@H](NCCCCCCN3C(=O)CCC3=O)CC[C@@H]12 [U-73343]
- cells that responded to mycoplasma with pretreatment ([4]; U-73343 2 μM): 82%
- peak [Ca2+]i after mycoplasma with pretreatment ([4]; U-73343 2 μM, basal: 90±12 nM, 10 cells): 330 ± 25 nM
- effect on M. hyopneumoniae-induced [Ca2+]i response ([4]; pretreatment 2 μM, inactive analogue U-73343): did not prevent

Compound: Mastoparan 7
- [Ca2+]i after administration ([1]; 10 μM, from basal level of 103±4 nM, n=9 cells): 351 ± 24 nM
- cells that responded ([1]; Mas 7 10 μM): 82%
- time to [Ca2+]i increase ([1]; Mas 7 10 μM): ≤ 100 s
- effect on [Ca2+]i ([1]; Mas 7 administration): increased

Compound: pertussis toxin
- effect on M. hyopneumoniae-induced [Ca2+]i increase ([4]; pretreatment 100 ng/mL, 3 hours): abolished
- effect on Mas 7-induced [Ca2+]i increase [5]: abolished
